Biological target: human P2X3 receptor (Homo sapiens (Human), UniProt P56373)
Experiment: Evaluation of human P2X3 receptor inhibitory activity (Fluo-3 calcium fluorescence, FDSS 3000, ATP stimulation);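 also: stimulus was 50 nM ATP with fluorescence followed for 3 min, and the response per well was peak post-ATP fluorescence divided by the reading at measurement start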
Type: cell-based
Conditions: human P2X3 receptor, Test Example 1

Sequence of human P2X3 receptor (P56373 whole entry): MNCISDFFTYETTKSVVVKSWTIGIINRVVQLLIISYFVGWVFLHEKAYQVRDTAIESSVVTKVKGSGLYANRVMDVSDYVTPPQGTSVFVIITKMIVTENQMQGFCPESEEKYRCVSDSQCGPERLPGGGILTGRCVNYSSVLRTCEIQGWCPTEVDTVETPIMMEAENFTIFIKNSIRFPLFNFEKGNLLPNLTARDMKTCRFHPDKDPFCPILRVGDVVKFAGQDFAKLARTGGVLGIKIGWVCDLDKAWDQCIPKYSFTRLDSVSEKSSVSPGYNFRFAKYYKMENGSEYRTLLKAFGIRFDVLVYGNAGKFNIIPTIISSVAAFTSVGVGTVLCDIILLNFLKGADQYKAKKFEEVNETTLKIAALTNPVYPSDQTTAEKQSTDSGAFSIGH

Compared with CCn1c(=O)[nH]/c(=N\c2ccc(Oc3ncc(C(=O)O)cn3)cc2)n(Cc2ccc(Cl)cc2)c1=O [Compound I-2323], CCn1c(=O)[nH]/c(=N\c2ccc(Oc3cnc(C(N)=O)cn3)cc2)n(Cc2ccc(Cl)cc2)c1=O [Compound I-2388] is 5.3-fold lower in IC50: 16 nM for the first, 3 nM for the second. The second is the more potent here.

CCn1c(=O)[nH]/c(=N\c2ccc3nc(OCC(=O)OC)sc3c2)n(Cc2ccc(Cl)cc2)c1=O [Compound I-2324] and CCn1c(=O)[nH]/c(=N\c2ccc3nc(OCC(=O)O)sc3c2)n(Cc2ccc(Cl)cc2)c1=O [Compound I-2326] are within 1.5-fold of each other in IC50: 115 nM for the first, 108 nM for the second.

First: CCn1c(=O)[nH]/c(=N\c2ccc3nc(O)sc3c2)n(Cc2ccc(Cl)cc2)c1=O [Compound I-2325]
Second: CCn1c(=O)[nH]/c(=N\c2ccc3nc(/C=N\OC)sc3c2)n(Cc2ccc(Cl)cc2)c1=O [Compound I-2338]
The IC50 of the first is 5.5-fold lower: 47 nM for the first, 260 nM for the second.

First: CCn1c(=O)[nH]/c(=N\c2ccc(Oc3cccc(/C=C/C(=O)OC)c3)cc2)n(Cc2ccc(C)cc2)c1=O [Compound I-2327]
Second: COC(=O)/C=C/c1cccc(Oc2ccc(/N=c3\[nH]c(=O)n(C)c(=O)n3Cc3ccc(C)cc3)cc2)c1 [Compound I-2328]
The IC50 of the first is 4.2-fold lower: 8 nM for the first, 34 nM for the second.

First: COC(=O)/C=C/c1cccc(Oc2ccc(/N=c3\[nH]c(=O)n(C)c(=O)n3Cc3ccc(Cl)cc3)cc2)c1 [Compound I-2329]
Second: Cn1c(=O)[nH]/c(=N\c2ccc(Oc3cccc(/C=C/C(=O)O)c3)cc2)n(Cc2ccc(Cl)cc2)c1=O [Compound I-2364]
The IC50 of the first is 8.8-fold higher: 70 nM for the first, 8 nM for the second.

O=C(O)c1cc(Oc2ccc(/N=c3\[nH]c(=O)n(C4CC4)c(=O)n3Cc3ccc(Cl)cc3)cc2)ccn1 [Compound I-2330] and O=C(O)c1cncc(Oc2ccc(/N=c3\[nH]c(=O)n(C4CC4)c(=O)n3Cc3ccc(Cl)cc3)cc2)c1 [Compound I-2331] are the same in IC50: 7 nM for the first, 7 nM for the second.

First: COC(=O)c1cncc(Oc2ccc(/N=c3\[nH]c(=O)n(C4COC4)c(=O)n3Cc3ccc(Cl)cc3)cc2)c1 [Compound I-2332]
Second: COC(=O)c1cc(Oc2ccc(/N=c3\[nH]c(=O)n(C)c(=O)n3Cc3ccc(Cl)cc3)cc2)ccn1 [Compound I-2377]
The IC50 of the first is 15-fold higher: 218 nM for the first, 15 nM for the second. The second is the more potent here.

Going from CC1(C)OC[C@H](Cn2c(=O)[nH]/c(=N\c3ccc(Oc4cncc(F)c4)cc3)n(Cc3ccc(Cl)cc3)c2=O)O1 [Compound I-2333] to Cc1cc(Oc2ccc(/N=c3\[nH]c(=O)n(C[C@H]4COC(C)(C)O4)c(=O)n3Cc3ccc(Cl)cc3)cc2)n(C)n1 [Compound I-2368], the IC50 rises from 3 nM to 13 nM (4.3-fold). The first is the more potent here.

Going from O=c1[nH]/c(=N\c2ccc(Oc3cncc(F)c3)cc2)n(Cc2ccc(Cl)cc2)c(=O)n1C[C@H](O)CO [Compound I-2334] to Cc1cc(Oc2ccc(/N=c3\[nH]c(=O)n(C[C@H](O)CO)c(=O)n3Cc3ccc(Cl)cc3)cc2)n(C)n1 [Compound I-2371], the IC50 rises from 5 nM to 102 nM (20-fold).

Compared with CCc1cc2cc(/N=c3\[nH]c(=O)n(CCCOC4CCCCO4)c(=O)n3Cc3ccc(Cl)cc3)ccc2o1 (stereo not shown) [Compound I-2335], CCc1cc2cc(/N=c3\[nH]c(=O)n(CCCO)c(=O)n3Cc3ccc(Cl)cc3)ccc2o1 [Compound I-2336] is 1.7-fold higher in IC50: 6 nM for the first, 10 nM for the second.

Cc1ccc(Cn2c(=O)n(C)c(=O)[nH]/c2=N\c2ccc(Oc3cc(C#N)ccn3)cc2)cc1 [Compound I-2340] and Cn1c(=O)[nH]/c(=N\c2ccc(Oc3cc(C#N)ccn3)cc2)n(Cc2ccc(Cl)cc2)c1=O [Compound I-2341] are within 1.5-fold of each other in IC50: 13 nM for the first, 10 nM for the second.

Cc1ccc(Cn2c(=O)n(C)c(=O)[nH]/c2=N\c2ccc(Oc3cc(C(N)=O)ccn3)cc2)cc1 [Compound I-2342] and Cc1ccc(Cn2c(=O)n(C)c(=O)[nH]/c2=N\c2ccc(Oc3cc(C(=O)O)ccn3)cc2)cc1 [Compound I-2343] are within 1.5-fold of each other in IC50: 16 nM for the first, 19 nM for the second.

First: CCn1c(=O)[nH]/c(=N\c2ccc(Oc3cccc(/C=C/C(=O)O)c3)cc2)n(Cc2ccc(C)cc2)c1=O [Compound I-2344]
Second: Cc1ccc(Cn2c(=O)n(C)c(=O)[nH]/c2=N\c2ccc(Oc3cccc(/C=C/C(=O)O)c3)cc2)cc1 [Compound I-2363]
The IC50 of the first is 3-fold lower: 3 nM for the first, 9 nM for the second. The first is the more potent here.

Going from CCn1c(=O)[nH]/c(=N\c2ccc(Oc3ncccc3C#N)cc2)n(Cc2ccc(Cl)cc2)c1=O [Compound I-2345] to CCn1c(=O)[nH]/c(=N\c2ccc(Oc3ncccc3C(N)=O)cc2)n(Cc2ccc(Cl)cc2)c1=O [Compound I-2365], the IC50 rises from 20 nM to 211 nM (11-fold).

CCn1c(=O)[nH]/c(=N\c2ccc(Oc3nc(C)c(C(=O)O)s3)cc2)n(C[C@H]2CC[C@H](C)CC2)c1=O [Compound I-2346] and CCn1c(=O)[nH]/c(=N\c2ccc(Oc3ncc(C(=O)O)s3)cc2)n(C[C@H]2CC[C@H](C)CC2)c1=O [Compound I-2347] are within 1.5-fold of each other in IC50: 4 nM for the first, 5 nM for the second.

Compared with CCn1c(=O)[nH]/c(=N\c2ccc(Oc3nc(C(=O)O)cs3)cc2)n(C[C@H]2CC[C@H](C)CC2)c1=O [Compound I-2348], CCn1c(=O)[nH]/c(=N\c2ccc(Oc3ccc(C(=O)O)nc3)cc2)n(C[C@H]2CC[C@H](C)CC2)c1=O [Compound I-2351] is 2.2-fold higher in IC50: 4 nM for the first, 9 nM for the second.

Going from CCn1c(=O)[nH]/c(=N\c2ccc(Oc3cc(C(=O)O)sn3)cc2)n(C[C@H]2CC[C@H](C)CC2)c1=O [Compound I-2349] to CCn1c(=O)[nH]/c(=N\c2ccc(Oc3ccsn3)cc2)n(C[C@H]2CC[C@H](C)CC2)c1=O [Compound I-2350], the IC50 falls from 4 nM to 2 nM (2-fold). The second is the more potent here.

Compared with CCn1c(=O)[nH]/c(=N\c2ccc(Oc3cncc(C(=O)O)c3)cc2)n(C[C@H]2CC[C@H](C)CC2)c1=O [Compound I-2352], CCn1c(=O)[nH]/c(=N\c2ccc(Oc3cccc(C(=O)O)c3)cc2)n(C[C@H]2CC[C@H](C)CC2)c1=O [Compound I-2354] is 2-fold lower in IC50: 6 nM for the first, 3 nM for the second. The second is the more potent here.

Cc1cc(Oc2ccc(/N=c3\[nH]c(=O)n(CC(CO)CO)c(=O)n3Cc3ccc(Cl)cc3)cc2)no1 [Compound I-2353] and O=c1[nH]/c(=N\c2ccc(Oc3ccon3)cc2)n(Cc2ccc(Cl)cc2)c(=O)n1CC(O)CO (stereo not shown) [Compound I-2370] are within 1.5-fold of each other in IC50: 8 nM for the first, 11 nM for the second.

Going from Cc1nnc(Oc2ccc(/N=c3\[nH]c(=O)n(C)c(=O)n3Cc3ccc(Cl)cc3)cc2)o1 [Compound I-2355] to Cn1c(=O)[nH]/c(=N\c2ccc(Oc3ccon3)cc2)n(Cc2ccc(Cl)cc2)c1=O [Compound I-2356], the IC50 falls from 71 nM to 24 nM (3-fold).

First: CCn1c(=O)[nH]/c(=N\c2ccc(Oc3ccon3)cc2)n(Cc2ccc(Cl)cc2)c1=O [Compound I-2357]
Second: O=c1[nH]/c(=N\c2ccc(Oc3ccon3)cc2)n(Cc2ccc(Cl)cc2)c(=O)n1CCCO [Compound I-2358]
The IC50 of the first is 2-fold higher: 12 nM for the first, 6 nM for the second.

Compared with CCn1c(=O)[nH]/c(=N\c2ccc(Oc3ccnc(C(=O)OC)c3)cc2)n(Cc2ccc(F)cc2)c1=O [Compound I-2359], CCn1c(=O)[nH]/c(=N\c2ccc(Oc3ccnc(C(=O)O)c3)cc2)n(Cc2ccc(F)cc2)c1=O [Compound I-2360] is 2.4-fold lower in IC50: 26 nM for the first, 11 nM for the second. The second is the more potent here.

Compared with CCn1c(=O)[nH]/c(=N\c2ccc(Oc3ccnc(C(N)=O)c3)cc2)n(Cc2ccc(F)cc2)c1=O [Compound I-2361], Cn1c(=O)[nH]/c(=N\c2ccc(Oc3ccnc(C(N)=O)c3)cc2)n(Cc2ccc(Cl)cc2)c1=O [Compound I-2378] is 2.5-fold lower in IC50: 15 nM for the first, 6 nM for the second. The second is the more potent here.

First: CCn1c(=O)[nH]/c(=N\c2ccc(Oc3ncccn3)cc2)n(Cc2ccc(Cl)cc2)c1=O [Compound I-2362]
Second: CCn1c(=O)[nH]/c(=N\c2ccc(Oc3ncccc3C(=O)O)cc2)n(Cc2ccc(Cl)cc2)c1=O [Compound I-2366]
The IC50 of the first is 9-fold lower: 10 nM for the first, 90 nM for the second. The first is the more potent here.

Going from CCn1c(=O)[nH]/c(=N\c2ccc(Oc3cc(C)nn3C)cc2)n(Cc2ccc(Cl)cc2)c1=O [Compound I-2367] to CCn1c(=O)[nH]/c(=N\c2ccc(Oc3ccc(C(=O)O)nn3)cc2)n(Cc2ccc(C)cc2)c1=O [Compound I-2383], the IC50 falls from 128 nM to 15 nM (8.5-fold). The second is the more potent here.

CCn1c(=O)[nH]/c(=N\c2ccc(Oc3ccnc(C#N)c3)cc2)n(Cc2ccc(Cl)cn2)c1=O [Compound I-2372] and CCn1c(=O)[nH]/c(=N\c2ccc(Oc3ccc(C#N)nc3)cc2)n(Cc2ccc(Cl)cn2)c1=O [Compound I-2375] are within 1.5-fold of each other in IC50: 32 nM for the first, 22 nM for the second.

Going from CCn1c(=O)[nH]/c(=N\c2ccc(Oc3cccc(C#N)n3)cc2)n(Cc2ccc(Cl)cn2)c1=O [Compound I-2373] to Cn1c(=O)[nH]/c(=N\c2ccc(Oc3cccc(C#N)n3)cc2)n(Cc2ccc(Cl)cc2)c1=O [Compound I-2374], the IC50 falls from 33 nM to 8 nM (4.1-fold). The second is the more potent here.

Cn1c(=O)[nH]/c(=N\c2ccc(Oc3cc(C(N)=O)ccn3)cc2)n(Cc2ccc(Cl)cc2)c1=O [Compound I-2376] and Cn1c(=O)[nH]/c(=N\c2ccc(Oc3cc(C(=O)O)ccn3)cc2)n(Cc2ccc(Cl)cc2)c1=O [Compound I-2391] are within 1.5-fold of each other in IC50: 20 nM for the first, 29 nM for the second.

Going from Cn1c(=O)[nH]/c(=N\c2ccc(Oc3ccc(C(N)=O)nn3)cc2)n(Cc2ccc(Cl)cc2)c1=O [Compound I-2379] to Cn1c(=O)[nH]/c(=N\c2ccc(Oc3ccc(C(=O)O)nn3)cc2)n(Cc2ccc(Cl)cc2)c1=O [Compound I-2381], the IC50 rises from 9 nM to 54 nM (6-fold).

Going from Cn1c(=O)[nH]/c(=N\c2ccc(Oc3nccc(C(N)=O)n3)cc2)n(Cc2ccc(Cl)cc2)c1=O [Compound I-2380] to Cn1c(=O)[nH]/c(=N\c2ccc(Oc3cnc(C(N)=O)cn3)cc2)n(Cc2ccc(Cl)cc2)c1=O [Compound I-2389], the IC50 falls from 29 nM to 10 nM (2.9-fold).

Compared with Cc1ccc(Cn2c(=O)n(C)c(=O)[nH]/c2=N\c2ccc(Oc3ccc(C(=O)O)nn3)cc2)cc1 [Compound I-2382], Cc1ccc(Cn2c(=O)n(C)c(=O)[nH]/c2=N\c2ccc(Oc3cnc(C(=O)O)cn3)cc2)cc1 [Compound I-2385] is 4.2-fold lower in IC50: 54 nM for the first, 13 nM for the second. The second is the more potent here.

Cn1c(=O)[nH]/c(=N\c2ccc(Oc3cnc(C(=O)O)cn3)cc2)n(Cc2ccc(Cl)cc2)c1=O [Compound I-2386] and Cn1c(=O)[nH]/c(=N\c2ccc(Oc3ccc(C#N)cn3)cc2)n(Cc2ccc(Cl)cc2)c1=O [Compound I-2392] are within 1.5-fold of each other in IC50: 13 nM for the first, 11 nM for the second.

First: CCn1c(=O)[nH]/c(=N\c2ccc(Oc3cccc(C#N)n3)c(OC)c2)n(Cc2ccc(Cl)cc2)c1=O [Compound I-2387]
Second: COc1cc(/N=c2\[nH]c(=O)n(C)c(=O)n2Cc2ccc(Cl)cc2)ccc1Oc1cccc(C#N)n1 [Compound I-2390]
The IC50 of the first is 3.5-fold lower: 2 nM for the first, 7 nM for the second.

Molecule Cc1ccc(Cn2c(=O)n(C)c(=O)[nH]/c2=N\c2ccc(Oc3ccc(C#N)cn3)cc2)cc1 [Compound I-2393] has an IC50 of 10 nM.
